Measurements taken from US10322187B2, “Reduced toxicity molecular conjugates of anti-fungal agents” (Lehigh University, priority 2015, dated 2019).
Read-outs that look alike come from different tables or passages of the source. Values belong to the compound of their own block, whether it stands above or below them.

Legend:
C. albicans = test: Antifungal activities, MIC/MFC; type: cell-based
Procedure: (§1) A similar sequence of reactions was carried out using lysine dicholamide in place of cholic acid afforded VJ-1147 of Table 2. To assess the antifungal properties of the diwalled VJ-1138 (Table 2) and 2a of Table 3, their in vitro activities were examined against four clinically relevant microbes, i.e., C. albicans, C. glabrata, C. neoformans, and C. gatti (Table 4).
(§2) Minimum inhibitory concentrations (MIC) and minimum fungicidal concentrations (MFC) are the lowest concentrations that are required for completely inhibiting growth, and killing at least 99% of the fungi, respectively.
(§3) The above molecules were tested for antifungal activity. Minimum inhibitory concentrations (MIC) and minimum fungicidal concentrations (MFC) are the lowest concentrations that are required for completely inhibiting growth, and killing at least 99% of the fungi, respectively. As is apparent from Table 4 below, there is a general trend; i.e., increased antifungal activity is observed as the length of the hydrocarbon chain that separates the facial amphiphile from the Amphotericin B moiety is decreased.

C. gatti = test: Antifungal activities, MIC/MFC; type: cell-based
Procedure: as §1, §2, §3

C. glabrata = test: Antifungal activities, MIC/MFC; type: cell-based
Procedure: as §1, §2, §3

C. neoformans = test: Antifungal activities, MIC/MFC; type: cell-based
Procedure: as §1, §2, §3

[1] = Critical aggregation concentration (CAC) by UV absorptivity; type: physicochemical; details: PBS, 37° C., absorptivity at 409 nm
From the text: If one lets: (i) T, m, and P represent the total, the monomeric, and the aggregate concentrations of this macrolide, respectively; (ii) ε represent the apparent molar absorptivity; and (iii) εm and εp represent the molar absorptivity for the monomeric and aggregate components, respectively, then it can be shown that ε=εp+(εm−εp)m/T. See Yamashita K, Janout V, Bernard E M, Armstrong D, and Regen, S L. Micelle/monomer control over the membrane disrupting properties of an amphiphilic antibiotic. J. Am. Chem. Soc. 117 (1995) 6249-6253. At concentrations that are in excess of its CAC, m is constant, and ε is expected to be inversely proportional to T. Thus, by measuring the apparent molar absorptivity as a function of the reciprocal of the concentration of VJ-1138, its CAC value is estimated to be 0.9 μM (from the intercept of two straight lines).
Determination of Critical Aggregation Concentration (CAC) of AmphB and molecular conjugates. Solutions of AmphB and molecular conjugates in DMSO (Sigma-Aldrich) were prepared having a concentration of 1.00 mM. […] The UV spectrum was then recorded in the range of 250-550 nm. The absorbance at 408 nm was plotted as a function of the reciprocal value of the concentration of AmB and the critical aggregation concentration of the molecular conjugates was then determined, graphically.

sheep red blood cells = test: Hemolysis measurements, release of hemoglobin; type: cell-based
Procedure: Sheep Red Blood Cells, 10%, in saline (Innovative Research, Novi, Mich.), were diluted in saline (pH 7.4) to a concentration of 4%, which corresponds to 4×10^7 cells/mL. All measurements were carried out in duplicate. Solutions of Amphotericin B (Sigma-Aldrich) were prepared by adding 10 μL of a DMSO solution containing a given concentration of the antibiotic (i.e., ranging from 0.2 mM to 50 mM) to 490 μL of PBS. After the resulting solution was vortex mixed for 30 seconds (s) it was incubated at 37° C. for 15 min. The resulting solution of antibiotic (500 μL) was then mixed with 500 μL of the 4% erythrocyte dispersion at 37° C. in a 1 mL plastic centrifuge vial to give a dispersion that was vortex mixed at slow rate for 5 s. After 1 h of incubation at 37° C., all samples were centrifuged (1500 g, Eppendorf centrifuge 5415C, 5000 rpm) at rt for 5 min. The supernatant (˜0.7 mL) from each plastic vial was carefully separated from sediment using a disposable glass pipette and quickly transferred to test tube. A volume of 50 μL of this supernatant was then transferred to a UV cell containing 500 μL of PBS that was maintained at 37° C. The UV spectrum was then scanned (450-650 nm) and the absorbance at 575 nm used to determine the extent of hemolysis. The extent of 0% and 100% of hemolysis was obtained from A575 values of experiments that were run in absence of AmphB (control, [A575,]o) and in presence, 100 μM AmphB ([A575]max), respectively.

[2] = test system: C. albicans, C. glabrata, C. neoformans, and C. gatti; test: In vitro antifungal activity, general statements on the four microbes; type: cell-based; details: at 11 μM
Procedure: as §1, §2

HEK293T cells = test: Inhibition of cell growth, MTT cell viability; type: cell-based, human; details: varying concentrations; FIG. 11
Procedure: Human embryonic kidney HEK293 cells were cultured in Dulbecco's modified Eagle's medium (DMEM supplemented with 10% FBS, 100 U/mL penicillin, and 0.1 mg/mL SI-10 streptomycin) in a humidified atmosphere of 5% CO2 at 37° C.
HEK293T cells were seeded in 96-well plates at a density of 6,000 cells/well and incubated overnight. Before treatment, compounds aliquots were solubilized in DMSO to obtain 10 mM stock solutions. Appropriate volumes of these stock solutions were added to DMEM media so the final concentration of DMSO is equal to 1%. After removal of cell media, 50 μL of treatment solutions were added to each well and incubated at 37° C. for 2 h. After treatment, the media was removed, and 100 μL of complete medium was added to each well before returning the plate to the incubator. Cell viability was determined after 72 h using the colorimetric MTT assay. Briefly, 10 μL of a 5 mg/mL MTT stock solution was added to the treated cells and incubated for 2 h at 37° C. The resulting formazan crystals were solubilized in 200 μL of DMSO, and the absorbance was measured at 580 nm using an Infinite 200 PRO microplate reader (Tecan). Cell viability was calculated against control cells treated with the vehicle in DMEM.

[3] = second Table 4 (Example 4), C. albicans
[4] = second Table 4 (Example 4), C. gatti
[5] = second Table 4 (Example 4), C. glabrata
[6] = second Table 4 (Example 4), C. neoformans
[7] = at concentrations as high as 400 μM, 37° C. in PBS, pH 7.4
[8] = summary, no concentration stated

MIC (C. albicans; Candida albicans, first Table 4, lowest concentration completely inhibiting growth, C. albicans, read-out: MIC): 0.5 µM
MIC (C. albicans; Candida albicans, second Table 4 (Example 4), C. albicans, read-out: MIC): 0.5 mg/L
MIC (C. gatti; first Table 4, C. gatti, read-out: MIC): 0.3 µM
MIC (C. gatti; second Table 4 (Example 4), C. gatti, read-out: MIC): 0.3 mg/L
MIC (C. glabrata; Nakaseomyces glabratus, first Table 4, C. glabrata, read-out: MIC): 0.5 µM
MIC (C. glabrata; Nakaseomyces glabratus, second Table 4 (Example 4), C. glabrata, read-out: MIC): 0.5 mg/L
MIC (C. neoformans; Cryptococcus neoformans, first Table 4, C. neoformans, read-out: MIC): 0.3 µM
MIC (C. neoformans; Cryptococcus neoformans, second Table 4 (Example 4), C. neoformans, read-out: MIC): 0.3 mg/L
critical aggregation concentration (CAC) [1]: ~0.9 µM
SMILES: C[C@@H]1[C@H](O)[C@@H](C)/C=C/C=C/C=C/C=C/C=C/C=C/C=C/[C@H](O[C@@H]2O[C@H](C)[C@@H](O)[C@H](N)[C@@H]2O)C[C@@H]2O[C@](O)(C[C@@H](O)C[C@@H](O)[C@H](O)CC[C@@H](O)C[C@@H](O)CC(=O)O[C@H]1C)C[C@H](O)[C@H]2C(=O)O [AmphB, amphotericin B, reference compound]
MFC (C. albicans; Candida albicans, first Table 4, lowest concentration killing at least 99% of the fungi, C. albicans, read-out: MFC): 1 µM
MFC (C. albicans; Candida albicans, second Table 4 (Example 4), C. albicans, read-out: MFC): 1 mg/L
MFC (C. gatti; first Table 4, C. gatti, read-out: MFC): 0.5 µM
MFC (C. gatti; second Table 4 (Example 4), C. gatti, read-out: MFC): 0.5 mg/L
MFC (C. glabrata; Nakaseomyces glabratus, first Table 4, C. glabrata): 1 µM
MFC (C. glabrata; Nakaseomyces glabratus, second Table 4 (Example 4), C. glabrata): 1 mg/L
MFC (C. neoformans; Cryptococcus neoformans, first Table 4, C. neoformans, read-out: MFC): 0.5 µM
MFC (C. neoformans; Cryptococcus neoformans, second Table 4 (Example 4), C. neoformans, read-out: MFC): 0.5 mg/L
EH50, concentration required to induce 50% release of hemoglobin from erythrocytes (sheep red blood cells; 37° C. in saline, pH 7.4): 4 µM

SMILES: CC1OC(O[C@H]2/C=C/C=C/C=C/C=C/C=C/C=C/C=C/[C@H](C)[C@@H](O)[C@@H](C)[C@H](C)OC(=O)C[C@H](O)C[C@H](O)CC[C@@H](O)[C@H](O)C[C@H](O)C[C@]3(O)C[C@H](O)[C@@H](C(=O)NCCCCCCCC(=O)N(CCCCNC(=O)C(CCCCNC(=O)CC[C@@H](C)C4CCC5C6C(O)CC7CC(O)CCC7(C)C6CC(O)C54C)NC(=O)CC[C@@H](C)C4CCC5C6C(O)CC7CC(O)CCC7(C)C6CC(O)C54C)CCCNC(=O)C(CCCCNC(=O)CC[C@@H](C)C4CCC5C6C(O)CC7CC(O)CCC7(C)C6CC(O)C54C)NC(=O)CC[C@@H](C)C4CCC5C6C(O)CC7CC(O)CCC7(C)C6CC(O)C54C)[C@H](C2)O3)C(O)C(N)C1O (stereo partly drawn) [VJ-1155]
MIC (C. albicans; Candida albicans): > 11 µM
MIC (C. gatti): > 11 µM
MIC (C. glabrata; Nakaseomyces glabratus): > 11 µM
MIC (C. neoformans; Cryptococcus neoformans): > 11 µM
antifungal activity [2]: no antifungal activity

SMILES: CC1OC(O[C@H]2/C=C/C=C/C=C/C=C/C=C/C=C/C=C/[C@H](C)[C@@H](O)[C@@H](C)[C@H](C)OC(=O)C[C@H](O)C[C@H](O)CC[C@@H](O)[C@H](O)C[C@H](O)C[C@]3(O)C[C@H](O)[C@@H](C(=O)NCCCCCCCCNC(=O)CC[C@@H](C)C4CCC5C6C(O)CC7CC(O)CCC7(C)C6CC(O)C54C)[C@H](C2)O3)C(O)C(N)C1O (stereo partly drawn) [YYM-69]
MFC (C. albicans; [3]): 2 mg/L
MIC (C. albicans; [3]): 2 mg/L
MFC (C. gatti; [4]): 2 mg/L
MIC (C. gatti; [4]): 1 mg/L
MIC (C. glabrata; [5]): >16/— μg/mL
MFC (C. neoformans; [6]): 2 mg/L
MIC (C. neoformans; [6]): 1 mg/L
hemolytic activity (sheep red blood cells; [7]): negligible hemolytic activities
hemolytic activity (sheep red blood cells; [8]): negligible hemolytic activity
toxicity towards HEK293 cells (HEK293T cells): negligible cytotoxicity

SMILES: CC1OC(O[C@H]2/C=C/C=C/C=C/C=C/C=C/C=C/C=C/[C@H](C)[C@@H](O)[C@@H](C)[C@H](C)OC(=O)C[C@H](O)C[C@H](O)CC[C@@H](O)[C@H](O)C[C@H](O)C[C@]3(O)C[C@H](O)[C@@H](C(=O)NCCCCCCCCCCNC(=O)CC[C@@H](C)C4CCC5C6C(O)CC7CC(O)CCC7(C)C6CC(O)C54C)[C@H](C2)O3)C(O)C(N)C1O (stereo partly drawn) [YYM-71]
MIC (C. albicans; [3]): >16/— μg/mL
MFC (C. gatti; [4]): > 16 mg/L
MIC (C. gatti; [4]): 1 mg/L
MIC (C. glabrata; [5]): >16/— μg/mL
MFC (C. neoformans; [6]): > 16 mg/L
MIC (C. neoformans; [6]): 2 mg/L
hemolytic activity (sheep red blood cells; [7]): negligible hemolytic activities
hemolytic activity (sheep red blood cells; [8]): negligible hemolytic activity
toxicity towards HEK293 cells (HEK293T cells): negligible cytotoxicity
